# Assay results as given in BigSolDB 2.1.
smiles,measurement,setting,value
N[C@H](Cc1c[nH]cn1)C(=O)O,solubility (mole fraction),"in 1,4-dioxane, 293.15 K",0.0072
same,solubility (mole fraction),"in 1,4-dioxane, 298.15 K",0.00864
same,solubility (mole fraction),"in 1,4-dioxane, 303.15 K",0.0102
same,solubility (mole fraction),"in 1,4-dioxane, 308.15 K",0.0117
same,solubility (mole fraction),"in 1,4-dioxane, 313.15 K",0.0135
same,solubility (mole fraction),"in 1,4-dioxane, 318.15 K",0.0152
same,solubility (mole fraction),"in 1,4-dioxane, 323.15 K",0.0179
same,solubility (mole fraction),"in 1,4-dioxane, 328.15 K",0.0206
same,solubility (mole fraction),"in 1,4-dioxane, 333.15 K",0.0245
same,solubility (mole fraction),"in DMF, 293.15 K",0.154
same,solubility (mole fraction),"in DMF, 298.15 K",0.176
same,solubility (mole fraction),"in DMF, 303.15 K",0.201
same,solubility (mole fraction),"in DMF, 308.15 K",0.228
same,solubility (mole fraction),"in DMF, 313.15 K",0.258
same,solubility (mole fraction),"in DMF, 318.15 K",0.29
same,solubility (mole fraction),"in DMF, 323.15 K",0.326
same,solubility (mole fraction),"in DMF, 328.15 K",0.365
same,solubility (mole fraction),"in DMF, 333.15 K",0.417
same,solubility (mole fraction),"in DMSO, 293.15 K",0.0171
same,solubility (mole fraction),"in DMSO, 298.15 K",0.0199
same,solubility (mole fraction),"in DMSO, 303.15 K",0.0232
same,solubility (mole fraction),"in DMSO, 308.15 K",0.0267
same,solubility (mole fraction),"in DMSO, 313.15 K",0.0308
same,solubility (mole fraction),"in DMSO, 318.15 K",0.0353
same,solubility (mole fraction),"in DMSO, 323.15 K",0.0403
same,solubility (mole fraction),"in DMSO, 328.15 K",0.0459
same,solubility (mole fraction),"in DMSO, 333.15 K",0.0543
same,solubility (mole fraction),"in NMP, 293.15 K",0.0656
same,solubility (mole fraction),"in NMP, 298.15 K",0.0752
same,solubility (mole fraction),"in NMP, 303.15 K",0.0859
same,solubility (mole fraction),"in NMP, 308.15 K",0.0977
same,solubility (mole fraction),"in NMP, 313.15 K",0.111
same,solubility (mole fraction),"in NMP, 318.15 K",0.127
same,solubility (mole fraction),"in NMP, 323.15 K",0.14
same,solubility (mole fraction),"in NMP, 328.15 K",0.157
same,solubility (mole fraction),"in NMP, 333.15 K",0.178
same,solubility (mole fraction),"in cyclohexane, 293.15 K",0.000445
same,solubility (mole fraction),"in cyclohexane, 298.15 K",0.000565
same,solubility (mole fraction),"in cyclohexane, 303.15 K",0.000714
same,solubility (mole fraction),"in cyclohexane, 308.15 K",0.000897
same,solubility (mole fraction),"in cyclohexane, 313.15 K",0.00111
same,solubility (mole fraction),"in cyclohexane, 318.15 K",0.00138
same,solubility (mole fraction),"in cyclohexane, 323.15 K",0.00169
same,solubility (mole fraction),"in cyclohexane, 328.15 K",0.00216
same,solubility (mole fraction),"in cyclohexane, 333.15 K",0.00252
same,solubility (mole fraction),"in ethanol, 293.15 K",0.000253
same,solubility (mole fraction),"in ethanol, 298.15 K",0.000329
same,solubility (mole fraction),"in ethanol, 303.15 K",0.000433
same,solubility (mole fraction),"in ethanol, 308.15 K",0.000557
same,solubility (mole fraction),"in ethanol, 313.15 K",0.000724
same,solubility (mole fraction),"in ethanol, 318.15 K",0.000915
same,solubility (mole fraction),"in ethanol, 323.15 K",0.0012
same,solubility (mole fraction),"in ethanol, 328.15 K",0.00145
same,solubility (mole fraction),"in ethanol, 333.15 K",0.00181
same,solubility (mole fraction),"in ethylene glycol, 293.15 K",0.00215
same,solubility (mole fraction),"in ethylene glycol, 298.15 K",0.00263
same,solubility (mole fraction),"in ethylene glycol, 303.15 K",0.0032
same,solubility (mole fraction),"in ethylene glycol, 308.15 K",0.00385
same,solubility (mole fraction),"in ethylene glycol, 313.15 K",0.00459
same,solubility (mole fraction),"in ethylene glycol, 318.15 K",0.00559
same,solubility (mole fraction),"in ethylene glycol, 323.15 K",0.00654
same,solubility (mole fraction),"in ethylene glycol, 328.15 K",0.00774
same,solubility (mole fraction),"in ethylene glycol, 333.15 K",0.00944
same,solubility (mole fraction),"in isobutanol, 293.15 K",0.000546
same,solubility (mole fraction),"in isobutanol, 298.15 K",0.000681
same,solubility (mole fraction),"in isobutanol, 303.15 K",0.00085
same,solubility (mole fraction),"in isobutanol, 308.15 K",0.00105
same,solubility (mole fraction),"in isobutanol, 313.15 K",0.00129
same,solubility (mole fraction),"in isobutanol, 318.15 K",0.00156
same,solubility (mole fraction),"in isobutanol, 323.15 K",0.00201
same,solubility (mole fraction),"in isobutanol, 328.15 K",0.0024
same,solubility (mole fraction),"in isobutanol, 333.15 K",0.00286
same,solubility (mole fraction),"in isopropanol, 293.15 K",0.000369
same,solubility (mole fraction),"in isopropanol, 298.15 K",0.00047
same,solubility (mole fraction),"in isopropanol, 303.15 K",0.000598
same,solubility (mole fraction),"in isopropanol, 308.15 K",0.000759
same,solubility (mole fraction),"in isopropanol, 313.15 K",0.000945
same,solubility (mole fraction),"in isopropanol, 318.15 K",0.00117
same,solubility (mole fraction),"in isopropanol, 323.15 K",0.00146
same,solubility (mole fraction),"in isopropanol, 328.15 K",0.00177
same,solubility (mole fraction),"in isopropanol, 333.15 K",0.00228
same,solubility (mole fraction),"in methanol, 293.15 K",0.00019
same,solubility (mole fraction),"in methanol, 298.15 K",0.000252
same,solubility (mole fraction),"in methanol, 303.15 K",0.00033
same,solubility (mole fraction),"in methanol, 308.15 K",0.000431
same,solubility (mole fraction),"in methanol, 313.15 K",0.000562
same,solubility (mole fraction),"in methanol, 318.15 K",0.000712
same,solubility (mole fraction),"in methanol, 323.15 K",0.000904
same,solubility (mole fraction),"in methanol, 328.15 K",0.00119
same,solubility (mole fraction),"in methanol, 333.15 K",0.00156
same,solubility (mole fraction),"in n-butanol, 293.15 K",0.0007
same,solubility (mole fraction),"in n-butanol, 298.15 K",0.000865
same,solubility (mole fraction),"in n-butanol, 303.15 K",0.00105
same,solubility (mole fraction),"in n-butanol, 308.15 K",0.00128
same,solubility (mole fraction),"in n-butanol, 313.15 K",0.00155
same,solubility (mole fraction),"in n-butanol, 318.15 K",0.00187
same,solubility (mole fraction),"in n-butanol, 323.15 K",0.00224
same,solubility (mole fraction),"in n-butanol, 328.15 K",0.00263
same,solubility (mole fraction),"in n-butanol, 333.15 K",0.0033
same,solubility (mole fraction),"in n-propanol, 293.15 K",0.000484
same,solubility (mole fraction),"in n-propanol, 298.15 K",0.00061
same,solubility (mole fraction),"in n-propanol, 303.15 K",0.00076
same,solubility (mole fraction),"in n-propanol, 308.15 K",0.000941
same,solubility (mole fraction),"in n-propanol, 313.15 K",0.00115
same,solubility (mole fraction),"in n-propanol, 318.15 K",0.00142
same,solubility (mole fraction),"in n-propanol, 323.15 K",0.00172
same,solubility (mole fraction),"in n-propanol, 328.15 K",0.00208
same,solubility (mole fraction),"in n-propanol, 333.15 K",0.00263
same,solubility (mole fraction),"in water, 293.15 K",0.00458
same,solubility (mole fraction),"in water, 298.15 K",0.00506
same,solubility (mole fraction),"in water, 303.15 K",0.00556
same,solubility (mole fraction),"in water, 308.15 K",0.00619
same,solubility (mole fraction),"in water, 313.15 K",0.00686
same,solubility (mole fraction),"in water, 318.15 K",0.00765
same,solubility (mole fraction),"in water, 323.15 K",0.00878
same,solubility (mole fraction),"in water, 328.15 K",0.00971
same,solubility (mole fraction),"in water, 333.15 K",0.0118
